From patent publication US20030216327A1, “Sapogenin-based treatment” (L'OREAL, priority 2002, published 2003)

System: immortalized human sebocytes derived from the SZ95 line
Assay: Lipid production by immortalized human sebocytes in culture (Nile Red fluorescence)
Format: cell-based
Conditions: treatment for two days; for VARIATION IN LIPIDS (compared to control): total lipids (neutral + non-neutral), Nile Red, 0.1% DMSO
Procedure: Hecogenin and diosgenin, provided by SIGMA, were tested on a model of immortalized human sebocytes in culture, derived from the SZ95 line described in C. C. Zouboulis, H. Seltmann, H. Neitzel & C. E. Orfanos, Establishment and Characterization of an Immortalized Human Sebaceous Gland Cell Line, J. Invest. Dermatol., 113, 1011-1020 (1999).
The test consisted in measuring the amount of lipids produced by the sebocytes of the line (at confluency), in the presence or absence of active agents, diluted in DMSO such that the final amount of DMSO in the culture medium is 0.1%. After treatment for two days, the adherent cells are treated with Nile Red (1 μg/ml). The lipid content is then quantified by measuring the fluorescence of the dye (two excitation/emission couples: 485-540 nm for the neutral lipids and 540-620 nm for the non-neutral lipids). The results are given for the total lipids (combination of the two measurements).
The experiment was carried out in triplicate (assay products and control) in a 96-well plate and repeated three times.

Compound	activity on lipid content (lipogenesis) (0.1 μM, same test, total lipids)	increase in the lipid content of the sebum (10 μM, same test, total lipids) [%]	VARIATION IN LIPIDS (compared to control) (0.1 μM)
C[C@]12CC[C@H](O)CC1=CC[C@@H]1[C@@H]2CC[C@]2(C)C(=O)CC[C@@H]12 [DHEA]	inactive	13	
C[C@@H]1CC[C@@]2(OC1)O[C@H]1C[C@H]3[C@@H]4CC[C@@]5(C)C[C@@H](O)CC[C@]5(C)[C@H]4CC(=O)[C@]3(C)[C@H]1[C@@H]2C [Hecogenin]			+5%
C[C@@H]1CC[C@@]2(OC1)O[C@H]1C[C@H]3[C@@H]4CC=C5C[C@@H](O)CC[C@]5(C)[C@H]4CC[C@]3(C)[C@H]1[C@@H]2C [Diosgenin]			+4%
